Results reported in US20030129629A1, “Methods and compositions for the identification, assessment, prevention, and therapy of human cancers” (Millennium Pharmaceuticals, Inc., priority 2000, published 2003).
Where two headings read alike, the source gives them in different places.

Assays:
[1] = test system: 60 cancer cell lines (NCI 60 cancer cell line series); assay: NCI-DTP in vitro cancer screen, sulforhodamine B (SRB) growth inhibition, 48 hour exposure; assay type: cell-based, human
Summary of the method: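 Potency is given as mean −log{GI50} from dose–response curves, manually binned into Low, Medium or High sensitivity. Sixty NCI-DTP tumour lines were treated 48 h with a duplicate, five-dose, ten-fold dilution series, and growth read by SRB staining of cell mass.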

[2] = test system: 60 cancer cell lines (NCI 60 cancer cell line series); settings: cited from earlier work

CN(Cc1cnc2nc(N)nc(N)c2n1)c1ccc(C(=O)N[C@@H](CCC(=O)O)C(=O)O)cc1 [Methotrexate]
5.0: −Log (GI50) ([2]; NSCLC EKVX CL1008)
5.1: −Log (GI50) ([2]; NSCLC HOP-92 CL1029)
7.4: −Log (GI50) ([2]; Leukemia HL-60(I) CL7008)
2: classification of cell line as Low(1), Medium(2), High(3) sensitivity to compound ([1]; CNS SF-268 CL12014) | classification of cell line as Low(1), Medium(2), High(3) sensitivity to compound ([1]; CNS U251(I) CL12009) | classification of cell line as Low(1), Medium(2), High(3) sensitivity to compound ([1]; Colon COLO-250 CL4010) | classification of cell line as Low(1), Medium(2), High(3) sensitivity to compound ([1]; Colon HCC-2998 CL4002) | classification of cell line as Low(1), Medium(2), High(3) sensitivity to compound ([1]; Colon KM12 CL4017) | classification of cell line as Low(1), Medium(2), High(3) sensitivity to compound ([1]; Leukemia HL-60(I) CL7008) | classification of cell line as Low(1), Medium(2), High(3) sensitivity to compound ([1]; Leukemia RPMI-8226(I) CL7010) | classification of cell line as Low(1), Medium(2), High(3) sensitivity to compound ([1]; Melanoma SK-MEL-5 CL10007) | classification of cell line as Low(1), Medium(2), High(3) sensitivity to compound ([1]; NSCLC HOP-62 CL1026) | sensitivity classification Low(1)/Medium(2)/High(3) ([1]; NSCLC NCI-H23(I) CL1001) | sensitivity classification Low(1)/Medium(2)/High(3) ([1]; NSCLC NCI-H332M CL1017) | sensitivity classification Low(1)/Medium(2)/High(3) ([1]; Ovarian IGROV1 CL6010) | sensitivity classification Low(1)/Medium(2)/High(3) ([1]; Ovarian OVCAR-3 CL6001) | sensitivity classification Low(1)/Medium(2)/High(3) ([1]; Ovarian OVCAR-5 CL6003) | sensitivity classification Low(1)/Medium(2)/High(3) ([1]; Prostate DU-145 CL11003) | sensitivity classification Low(1)/Medium(2)/High(3) ([1]; Renal ACHN CL9023) | sensitivity classification Low(1)/Medium(2)/High(3) ([1]; Renal UO-31 CL9004)
3: classification of cell line as Low(1), Medium(2), High(3) sensitivity to compound ([1]; CNS SF-295 CL12015) | classification of cell line as Low(1), Medium(2), High(3) sensitivity to compound ([1]; CNS SF-539 CL12016) | classification of cell line as Low(1), Medium(2), High(3) sensitivity to compound ([1]; Colon HCT-15 CL4015) | classification of cell line as Low(1), Medium(2), High(3) sensitivity to compound ([1]; Colon HCT-116 CL4003) | classification of cell line as Low(1), Medium(2), High(3) sensitivity to compound ([1]; Leukemia K562(I) CL7005) | classification of cell line as Low(1), Medium(2), High(3) sensitivity to compound ([1]; Leukemia SR CL7019) | classification of cell line as Low(1), Medium(2), High(3) sensitivity to compound ([1]; Melanoma LOX IMVI CL10001) | classification of cell line as Low(1), Medium(2), High(3) sensitivity to compound ([1]; Melanoma UACC-62 CL10020) | classification of cell line as Low(1), Medium(2), High(3) sensitivity to compound ([1]; NSCLC A549/ATCC CL1004) | sensitivity classification Low(1)/Medium(2)/High(3) ([1]; NSCLC NCI-H460 CL1021) | sensitivity classification Low(1)/Medium(2)/High(3) ([1]; Renal SN12C CL9008)
1: classification of cell line as Low(1), Medium(2), High(3) sensitivity to compound ([1]; Breast BT-549 CL5013) | classification of cell line as Low(1), Medium(2), High(3) sensitivity to compound ([1]; Breast HS-578T CL5006) | classification of cell line as Low(1), Medium(2), High(3) sensitivity to compound ([1]; Breast MDA-MB-231 CL5005) | classification of cell line as Low(1), Medium(2), High(3) sensitivity to compound ([1]; Breast T-47D CL5014) | classification of cell line as Low(1), Medium(2), High(3) sensitivity to compound ([1]; Melanoma SK-MEL-2 CL10005) | classification of cell line as Low(1), Medium(2), High(3) sensitivity to compound ([1]; Melanoma SK-MEL-28 CL10008) | classification of cell line as Low(1), Medium(2), High(3) sensitivity to compound ([1]; NSCLC EKVX CL1008) | classification of cell line as Low(1), Medium(2), High(3) sensitivity to compound ([1]; NSCLC HOP-92 CL1029) | classification of cell line as Low(1), Medium(2), High(3) sensitivity to compound ([1]; NSCLC NCI-H226 CL1013) | sensitivity classification Low(1)/Medium(2)/High(3) ([1]; Ovarian OVCAR-4 CL6002) | sensitivity classification Low(1)/Medium(2)/High(3) ([1]; Renal A498 CL9013) | sensitivity classification Low(1)/Medium(2)/High(3) ([1]; Renal RXF-393 CL9016) | sensitivity classification Low(1)/Medium(2)/High(3) ([1]; Renal TK10 CL9024)
7.5: −Log (GI50) ([2]; Melanoma M14 CL10014) | −Log (GI50) ([2]; Renal 786-0 CL9018)

Bleomycin
1: classification of cell line as Low(1), Medium(2), High(3) sensitivity to compound ([1]; Breast MDA-MB-231 CL5005) | classification of cell line as Low(1), Medium(2), High(3) sensitivity to compound ([1]; Breast MDA-MB-435 CL5011) | classification of cell line as Low(1), Medium(2), High(3) sensitivity to compound ([1]; Breast MDA-N CL5012) | classification of cell line as Low(1), Medium(2), High(3) sensitivity to compound ([1]; Colon HT29(I) CL4001) | classification of cell line as Low(1), Medium(2), High(3) sensitivity to compound ([1]; Colon KM12 CL4017) | classification of cell line as Low(1), Medium(2), High(3) sensitivity to compound ([1]; Melanoma SK-MEL-2 CL10005) | classification of cell line as Low(1), Medium(2), High(3) sensitivity to compound ([1]; Melanoma SK-MEL-28 CL10008) | sensitivity classification Low(1)/Medium(2)/High(3) ([1]; NSCLC NCI-H332M CL1017) | sensitivity classification Low(1)/Medium(2)/High(3) ([1]; Renal TK10 CL9024)
2: classification of cell line as Low(1), Medium(2), High(3) sensitivity to compound ([1]; Breast MCF7(I) CL5001) | classification of cell line as Low(1), Medium(2), High(3) sensitivity to compound ([1]; Breast MCF7/ADRr CL5002) | classification of cell line as Low(1), Medium(2), High(3) sensitivity to compound ([1]; Breast T-47D CL5014) | classification of cell line as Low(1), Medium(2), High(3) sensitivity to compound ([1]; CNS SF-268 CL12014) | classification of cell line as Low(1), Medium(2), High(3) sensitivity to compound ([1]; CNS SNB-19 CL12002) | classification of cell line as Low(1), Medium(2), High(3) sensitivity to compound ([1]; CNS SNB-75(I) CL12005) | classification of cell line as Low(1), Medium(2), High(3) sensitivity to compound ([1]; CNS U251(I) CL12009) | classification of cell line as Low(1), Medium(2), High(3) sensitivity to compound ([1]; Colon COLO-250 CL4010) | classification of cell line as Low(1), Medium(2), High(3) sensitivity to compound ([1]; Colon HCT-15 CL4015) | classification of cell line as Low(1), Medium(2), High(3) sensitivity to compound ([1]; Colon HCT-116 CL4003) | classification of cell line as Low(1), Medium(2), High(3) sensitivity to compound ([1]; Colon SW-620 CL4009) | classification of cell line as Low(1), Medium(2), High(3) sensitivity to compound ([1]; Leukemia CCRF-CEM(I) CL7003) | classification of cell line as Low(1), Medium(2), High(3) sensitivity to compound ([1]; Leukemia HL-60(I) CL7008) | classification of cell line as Low(1), Medium(2), High(3) sensitivity to compound ([1]; Leukemia K562(I) CL7005) | classification of cell line as Low(1), Medium(2), High(3) sensitivity to compound ([1]; Leukemia MOLT-4 CL7006) | classification of cell line as Low(1), Medium(2), High(3) sensitivity to compound ([1]; Melanoma M14 CL10014) | classification of cell line as Low(1), Medium(2), High(3) sensitivity to compound ([1]; Melanoma MALME-3M CL10002) | sensitivity classification Low(1)/Medium(2)/High(3) ([1]; NSCLC NCI-H23(I) CL1001) | sensitivity classification Low(1)/Medium(2)/High(3) ([1]; NSCLC NCI-H522 CL1003) | sensitivity classification Low(1)/Medium(2)/High(3) ([1]; Ovarian IGROV1 CL6010) | sensitivity classification Low(1)/Medium(2)/High(3) ([1]; Ovarian OVCAR-3 CL6001) | sensitivity classification Low(1)/Medium(2)/High(3) ([1]; Ovarian OVCAR-4 CL6002) | sensitivity classification Low(1)/Medium(2)/High(3) ([1]; Ovarian OVCAR-5 CL6003) | sensitivity classification Low(1)/Medium(2)/High(3) ([1]; Ovarian OVCAR-8 CL6005) | sensitivity classification Low(1)/Medium(2)/High(3) ([1]; Ovarian SK-OV-3 CL6011) | sensitivity classification Low(1)/Medium(2)/High(3) ([1]; Prostate DU-145 CL11003) | sensitivity classification Low(1)/Medium(2)/High(3) ([1]; Prostate PC-3(I) CL11001) | sensitivity classification Low(1)/Medium(2)/High(3) ([1]; Renal 786-0 CL9018) | sensitivity classification Low(1)/Medium(2)/High(3) ([1]; Renal A498 CL9013) | sensitivity classification Low(1)/Medium(2)/High(3) ([1]; Renal SN12C CL9008)
6.8: −Log (GI50) ([2]; Melanoma LOX IMVI CL10001)
5.3: −Log (GI50) ([2]; Ovarian OVCAR-3 CL6001)
7.7: −Log (GI50) ([2]; CNS SF-539 CL12016)
3: classification of cell line as Low(1), Medium(2), High(3) sensitivity to compound ([1]; CNS SF-295 CL12015) | classification of cell line as Low(1), Medium(2), High(3) sensitivity to compound ([1]; CNS SF-539 CL12016) | classification of cell line as Low(1), Medium(2), High(3) sensitivity to compound ([1]; Leukemia SR CL7019) | classification of cell line as Low(1), Medium(2), High(3) sensitivity to compound ([1]; Melanoma LOX IMVI CL10001) | sensitivity classification Low(1)/Medium(2)/High(3) ([1]; Renal ACHN CL9023)
